Laboratory results published in PMC8445441, “Elucidating the mechanism by which synthetic helper peptides sensitize Pseudomonas aeruginosa to multiple antibiotics” (PLoS Pathogens, 2021).
Read-outs that look alike come from different tables or passages of the source.

How the values were obtained:
[1] = test system: clinical P. aeruginosa isolates; test: microbe, parasite or virus in culture; conditions: Pseudomonas aeruginosa, 18 h, antibiotic alone
How it was run: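 MIC is the lowest drug concentration showing no visible growth after 18 h at 37 °C. Two-fold dilutions in MHB were combined with an equal volume of bacterial suspension (about 1 × 10^6 CFU/mL), following CLSI broth microdilution, in triplicate.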

[2] = test system: P. aeruginosa ATCC27853; test: microbe, parasite or virus in culture; set-up: MICa: MIC of the antibiotic / MICac: MIC of the antibiotic in the combination: unit not given beside the values
How it was run: (§1)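 Values are lowest concentrations showing no visible growth after 18 h at 37 °C. Drugs were serially halved in MHB and combined with equal volumes of a roughly 1 × 10^6 CFU/mL suspension, following CLSI guidance, in triplicate.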

[3] = test system: P. aeruginosa NR-31041; test: microbe, parasite or virus in culture; set-up: MICa: MIC of the antibiotic / MICac: MIC of the antibiotic in the combination: unit not given beside the values
How it was run: as §1

[4] = test system: P. aeruginosa PAK; test: microbe, parasite or virus in culture; set-up: MICa: MIC of the antibiotic / MICac: MIC of the antibiotic in the combination: unit not given beside the values
How it was run: as §1

[5] = test system: P. aeruginosa NR-31040; test: microbe, parasite or virus in culture; set-up: MICa: MIC of the antibiotic / MICac: MIC of the antibiotic in the combination: unit not given beside the values; conditions: strain NR-31040
How it was run: as §1

[6] = test system: P. aeruginosa PA14; test: microbe, parasite or virus in culture; set-up: MICa: MIC of the antibiotic / MICac: MIC of the antibiotic in the combination: unit not given beside the values
How it was run: as §1

[7] = test system: P. aeruginosa AUMC-Pa-1; conditions: strain AUMC-Pa-1; antibiotic + D-11 (MICb/MICbc 128/4)
How it was run: as §1

[8] = test system: P. aeruginosa AUMC-Pa-2; conditions: strain AUMC-Pa-2; antibiotic + D-11 (MICb/MICbc 64/4)
How it was run: as §1

[9] = test system: P. aeruginosa HM-214; conditions: strain HM-214; antibiotic + D-11 (MICb/MICbc 128/4)
How it was run: as §1

[10] = test system: P. aeruginosa AUMC-Pa-6; test: microbe, parasite or virus in culture; conditions: strain AUMC-Pa-6
How it was run: as §1

[11] = test system: P. aeruginosa AUMC-Pa-3; test: microbe, parasite or virus in culture
How it was run: as §1

[12] = test system: P. aeruginosa PAO1; test: microbe, parasite or virus in culture; conditions: PAO1
How it was run: as §1

[13] = test system: P. aeruginosa AUMC-Pa-4; test: microbe, parasite or virus in culture; conditions: strain AUMC-Pa-4
How it was run: as §1

[14] = test system: P. aeruginosa AUMC-Pa-5; test: microbe, parasite or virus in culture; conditions: strain AUMC-Pa-5
How it was run: as §1

[15] = antibiotic + D-11 (MICb/MICbc 128/4)
[16] = antibiotic alone, unit not given
[17] = with D-11 at MICbc 4, unit not given
[18] = antibiotic + D-11 (MICb/MICbc 64/4)

In the case of CO[C@H]1/C=C/O[C@@]2(C)Oc3c(C)c(O)c4c(c3C2=O)C2=NC3(CCN(CC(C)C)CC3)NC2=C(NC(=O)/C(C)=C\C=C\[C@H](C)[C@H](O)[C@@H](C)[C@@H](O)[C@@H](C)[C@H](OC(C)=O)[C@@H]1C)C4=O [Rifabutin], the MIC ([1]; read-out: Antibiotic sensibility (MIC) of clinical P. aeruginosa isolate AUMC-Pa-1, strain AUMC-Pa-1) is reported as 32 µM, the MIC ([1]; read-out: Antibiotic sensibility (MIC) of clinical P. aeruginosa isolate AUMC-Pa-2, strain AUMC-Pa-2) is reported as 8 µM and the MIC ([1]; read-out: Antibiotic sensibility (MIC) of clinical P. aeruginosa isolate AUMC-Pa-3, strain AUMC-Pa-3) is reported as 16 µM. It also gave an MIC ([1]; read-out: Antibiotic sensibility (MIC) of clinical P. aeruginosa isolate AUMC-Pa-4, strain AUMC-Pa-4) of 16 µM, an MIC ([1]; read-out: Antibiotic sensibility (MIC) of clinical P. aeruginosa isolate AUMC-Pa-5, strain AUMC-Pa-5) of 32 µM and an MIC ([1]; read-out: Antibiotic sensibility (MIC) of clinical P. aeruginosa isolate AUMC-Pa-6, strain AUMC-Pa-6) of 16 µM. It also gave an MIC ([1]; read-out: Antibiotic sensibility (MIC) of clinical P. aeruginosa isolate HM-214, strain HM-214) of 32 µM, an MIC ([1]; read-out: Antibiotic sensibility (MIC) of clinical P. aeruginosa isolate NR-31040, strain NR-31040) of 32 µM and an MIC ([1]; read-out: Antibiotic sensibility (MIC) of clinical P. aeruginosa isolate NR-31041, strain NR-31041) of 32 µM. For the same compound, the MIC ([2]; Pseudomonas aeruginosa, ATCC27853, 18 h, read-out: MICa: MIC of the antibiotic) was 16 µM, the FICI ([2]; strain ATCC27853, antibiotic + D-11 (MICb/MICbc 32/4)) was 0.133 and the “MICac: MIC of the antibiotic in the combination” value (shortened to “MICac: MIC of the antibiotic”) ([2]; strain ATCC27853, with D-11 at MICbc 4, unit not given) was 0.25. For the same compound, the MIC ([3]; Pseudomonas aeruginosa, NR31041, 18 h, read-out: MICa: MIC of the antibiotic) was 32 µM, the FICI ([3]; strain NR-31041, antibiotic + D-11 (MICb/MICbc 64/4)) was 0.070 and the “MICac: MIC of the antibiotic” value ([3]; strain NR-31041, with D-11 at MICbc 4, unit not given) was 0.25. The MIC ([4]; Pseudomonas aeruginosa, 18 h, read-out: MICa: MIC of the antibiotic) was 16 µM, the FICI ([4]; strain PAK, antibiotic + D-11 (MICb/MICbc 64/4)) was 0.078 and the “MICac: MIC of the antibiotic” value ([4]; strain PAK, with D-11 at MICbc 4, unit not given) was 0.25. For the same compound, the FICI [5, 15] was 0.094, the “MICa: MIC of the antibiotic” value [5, 16] was 32 and the “MICac: MIC of the antibiotic” value [5, 17] was 2. For the same compound, the MIC ([6]; Pseudomonas aeruginosa, PA14, 18 h, read-out: MICa: MIC of the antibiotic) was over 128 µM, the FICI ([6]; strain PA14, antibiotic + D-11 (MICb/MICbc 128/4)) was 0.039 and the “MICac: MIC of the antibiotic” value ([6]; strain PA14, with D-11 at MICbc 4, unit not given) was 2. For the same compound, the FICI [7] was 0.039, the FICI [8] was 0.070 and the FICI [9] was 0.039. The FICI [10, 18] was 0.313, the “MICa: MIC of the antibiotic” value [10, 16] was 16 and the “MICac: MIC of the antibiotic” value [10, 17] was 4. For the same compound, the MIC ([11]; Pseudomonas aeruginosa, AUMCPA3, 18 h, read-out: MICa: MIC of the antibiotic) was 16 µM, the FICI ([11]; strain AUMC-Pa-3, antibiotic + D-11 (MICb/MICbc 128/4)) was 0.035 and the “MICac: MIC of the antibiotic” value ([11]; strain AUMC-Pa-3, with D-11 at MICbc 4, unit not given) was 0.063. It also gave an MIC ([12]; Pseudomonas aeruginosa, PAO1, 18 h, read-out: MICa: the MIC of antibiotics, S3 Table, antibiotic alone) of 32 µM, an FICI ([12]; S3 Table, antibiotic + 2 μM D-11) of 0.064 and an FICI ([12]; S3 Table, antibiotic + 4 μM D-11) of 0.126. The “MICac: the MIC for the antibiotic in the combination” value ([12]; S3 Table, with 2 μM D-11) was 0.0625 µM, the “MICac: the MIC for the antibiotic in the combination” value ([12]; S3 Table, with 4 μM D-11) was 0.03125 µM and the “MICa: the MIC of antibiotics” value ([12]; S3 Table, antibiotic alone) was 32 µM. For the same compound, the FICI [13, 15] was 0.094, the “MICa: MIC of the antibiotic” value [13, 16] was 16 and the “MICac: MIC of the antibiotic” value [13, 17] was 1. The FICI [14, 18] was 0.313, the “MICa: MIC of the antibiotic” value [14, 16] was 32 and the “MICac: MIC of the antibiotic” value [14, 17] was 8.
